The record followed here is the Kinase Knowledgebase extract (Sharma et al. 2016).

In one experiment the target is CDK2 (UniProt P24941). As to the kind of experiment: Enzyme Assay.
In a further experiment the target is CDK2 (human) (UniProt P24941). As to the kind of experiment: Cell-Based Assay.
The test system of a further experiment is CDK2 (rat). The experiment is described as follows: Cell-Based Assay. The conditions noted are these: rasmc.

≈ marks a conversion by molar mass, not a printed value.

On to `CC(C)n1cnc2c(NCC3CCCCC3)nc(Cl)nc21`, for which the half-inhibitory concentration (IC50) against CDK2 turned out to be 1 µg/mL (≈ 3.25 µM).
Take `CC(C)n1cnc2c(NCc3ccc(S(N)(=O)=O)cc3)nc(NCCN)nc21`: at CDK2, the IC50 was determined as 9 µg/mL (≈ 22.2 µM).
`COc1ccc(CNc2nc(Cl)nc3c2ncn3CCCCl)cc1` gave an IC50 against CDK2 of over 60 µg/mL.
At CDK2, `Cn1cnc2c(NCCO)nc(NCCO)nc21` returned an IC50 of over 60 µg/mL.
On CDK2, `CC(C)n1cnc2c(NCc3ccc(F)cc3)nc(NC[C@@H](C)O)nc21` returned an IC50 of 0.23 µg/mL (≈ 0.642 µM).
In turn, `Cn1cnc2c(OCc3ccc(Cl)cc3)nc(Cl)nc21` yielded an IC50 against CDK2 of 60 µg/mL (≈ 194 µM).
Regarding `CC(C)n1cnc2c(NCc3ccc(Cl)cc3)nc(N[C@H](C)CO)nc21`, the 50% inhibitory concentration (IC50) against CDK2 amounted to 0.35 µg/mL (≈ 0.934 µM).
`CC(C)[C@@H](CO)Nc1nc(NCc2ccc(F)cc2)c2ncn(C(C)C)c2n1` came in with an IC50 against CDK2 of 0.19 µg/mL (≈ 0.492 µM). Against the preceding compound, the IC50 is about 1.8-fold lower.
With `CC(C)n1cnc2c(NCc3ccc(F)cc3)nc(NC[C@@H]3CCCO3)nc21`, the half-maximal inhibitory concentration (IC50) on CDK2 came out at 0.63 µg/mL (≈ 1.64 µM). This IC50 lies about 3.3-fold higher than the previous one.
`COC(=O)c1ccc(Cn2cnc3c(NCc4ccc(OC)cc4)nc(Cl)nc32)cc1` registered a 50% inhibitory concentration (IC50) against CDK2 of over 60 µg/mL.
For the compound `CC(C)n1cnc2c(NCc3ccc(F)cc3)nc(NC[C@H](C)O)nc21`, on CDK2, the half-maximal inhibitory concentration (IC50) stood at 0.22 µg/mL (≈ 0.614 µM).
`COc1ccc(CNc2nc(N(CCO)CCO)nc3c2ncn3CCO)cc1`: the IC50 on CDK2 came to 0.5 µg/mL (≈ 1.24 µM).
The same measure, in the same setting: to `COc1ccc(CNc2nc(N(CCO)CCO)nc3c2ncn3C)cc1` belongs 4 µg/mL (≈ 10.7 µM).
Same read-out and setting: to `COc1ccc(CNc2nc(Cl)nc3c2ncn3C(C)C)cc1` belongs 4 µg/mL (≈ 12.1 µM); to `CSc1ccc(Nc2nc(N(CCO)CCO)nc3c2ncn3C(C)C)cc1`, 0.07 µg/mL (≈ 0.174 µM); to `CC(C)n1cnc2c(NCc3ccc(Cl)cc3)nc(NCCCCCN)nc21`, 31 µg/mL (≈ 77.1 µM).
Same read-out and setting: for `COc1ccc(CNc2nc(NC(C)(CO)C(C)C)nc3c2ncn3C(C)C)cc1` (stereo not drawn) the value was 1 µg/mL (≈ 2.42 µM).
The compound `COc1ccc(CNc2nc(Cl)nc3c2ncn3Cc2ccccc2)cc1` had a 50% inhibitory concentration (IC50) against CDK2 of over 60 µg/mL.
In the case of `CC(C)n1cnc2c(NCc3ccc(-c4ccccc4)cc3)nc(N(CCO)CCO)nc21`, the half-maximal inhibitory concentration (IC50) amounted to 0.6 µg/mL (≈ 1.34 µM) on CDK2; 3.5 µg/mL (≈ 7.84 µM) at CDK2 (human) (caco-2); 1 µg/mL (≈ 2.24 µM) against CDK2 (human) (mcf-7); 2 µg/mL (≈ 4.48 µM) against CDK2 (human) (ovcar); 1.3 µg/mL (≈ 2.91 µM) against CDK2 (human) (panc1).
Consider `CC(C)n1cnc2c(NCc3ccc(Cl)cc3)nc(N[C@@H](Cc3ccccc3)C(N)=O)nc21`, for which, at CDK2, the IC50 stood at 1.07 µg/mL (≈ 2.31 µM).
At CDK2, `CC(C)n1cnc2c(NCc3ccc(Cl)cc3)nc(NCCNCCO)nc21` gave a half-maximal inhibitory concentration (IC50) of 2.02 µg/mL (≈ 5 µM). This IC50 is about 1.9-fold higher than that of the compound before.
Consider `CC(C)n1cnc2c(NCc3ccc(Cl)cc3)nc(N(CCN)CCO)nc21`, for which the figures for the IC50 at CDK2 and at CDK2 (human) (mrc 5) were 0.07 µg/mL (≈ 0.173 µM) and 1 µg/mL (≈ 2.48 µM), respectively.
At CDK2, `CC(C)n1cnc2c(Nc3cccc(-c4ccc(C#N)cc4)c3)nc(N(CCO)CCO)nc21` showed a 50% inhibitory concentration (IC50) of 0.5 µg/mL (≈ 1.09 µM).
The same measure, in the same setting: for `COc1ccc(CNc2nc(Cl)nc3[nH]cnc23)cc1` the value was 60 µg/mL (≈ 207 µM).
The same measure, in the same setting: to `CC(=O)C(C)n1cnc2c(NCc3ccc(Cl)cc3)nc(N(CCO)CCO)nc21` (stereo not drawn) belongs 37 µg/mL (≈ 85.5 µM); to `COc1ccc(CNc2nc(Cl)nc3c2ncn3CCCC#N)cc1`, over 60 µg/mL; to `CC(C)[C@H](CO)Nc1nc(NCc2ccc(F)cc2)c2ncn(C(C)C)c2n1`, 0.06 µg/mL (≈ 0.155 µM).
Same read-out and setting: to `COc1ccc(CNc2nc(NCCO)nc3c2ncn3C(C)C)cc1` belongs 4 µg/mL (≈ 11.2 µM).
On to `CC(C)n1cnc2c(NCc3ccc(-c4ccccn4)cc3)nc(N(CCO)CCO)nc21`, for which, on CDK2, the IC50 worked out at 0.16 µg/mL (≈ 0.358 µM).
With `CC(C)n1cnc2c(NCc3ccc(Cl)cc3)nc(NC[C@@H](C)O)nc21`, at CDK2, the IC50 was found to be 0.43 µg/mL (≈ 1.15 µM). This IC50 lies about 2.7-fold higher than the previous one.
Compound `CC(C)n1cnc2c(NCc3ccc(Cl)cc3)nc(NCC(O)c3ccccc3)nc21` (stereo not drawn) came in with an IC50 on CDK2 of 0.08 µg/mL (≈ 0.183 µM). Compared with the last compound, the IC50 is about 5.4-fold lower.
As for `CC(C)n1cnc2c(Nc3ccc(-c4ccccc4)cc3)nc(N(CCO)CCO)nc21`, the half-inhibitory concentration (IC50) against CDK2 was determined as 0.6 µg/mL (≈ 1.39 µM); with CDK2 (rat), 1 µg/mL (≈ 2.31 µM); against CDK2 (human) (caco-2) it was 0.5 µg/mL (≈ 1.16 µM); on CDK2 (human) (mcf-7), 4 µg/mL (≈ 9.25 µM); against CDK2 (human) (ovcar) it was 7 µg/mL (≈ 16.2 µM); on CDK2 (human) (panc1), 4 µg/mL (≈ 9.25 µM).
Turning to `CC(CO)Nc1nc(NCc2ccc(F)cc2)c2ncn(C(C)C)c2n1` (stereo not drawn), at CDK2, the IC50 stood at 0.18 µg/mL (≈ 0.502 µM).
Regarding `CC(C)n1cnc2c(NCc3ccc(Cl)cc3)nc(NCCN)nc21`, the half-inhibitory concentration (IC50) was 0.35 µg/mL (≈ 0.973 µM) against CDK2 and 1 µg/mL (≈ 2.78 µM) against CDK2 (human) (mrc 5).
Take `CC(C)n1cnc2c(NCc3ccc(C(F)(F)F)cc3)nc(N(CCO)CCO)nc21`: at CDK2, the IC50 was 0.56 µg/mL (≈ 1.28 µM).
Consider `CC(C)n1cnc2c(NCc3ccc(-c4cccs4)cc3)nc(N(CCO)CCO)nc21`, for which the 50% inhibitory concentration (IC50) on CDK2 came out at 0.5 µg/mL (≈ 1.1 µM).
On the same count and under the same terms, for `CC(C)n1cnc2c(Nc3ccccc3)nc(Cl)nc21` the value was 1 µg/mL (≈ 3.48 µM).

As usually defined, the IC50 is the midpoint of a concentration-inhibition curve. High values mean a need for much substance, low ones inhibition by little substance.
